According to paper PMC10210181 (ACS Omega, 2023):
pIC50: −log10 of the molar value.

Target: S. aureus DNA gyrase (Staphylococcus aureus, UniProt P0A0K8+P20831)
Assay: DNA gyrase supercoiling assay, purified gyrase and relaxed plasmid DNA kit
Format: biochemical

Chain of S. aureus DNA gyrase (P20831 whole entry): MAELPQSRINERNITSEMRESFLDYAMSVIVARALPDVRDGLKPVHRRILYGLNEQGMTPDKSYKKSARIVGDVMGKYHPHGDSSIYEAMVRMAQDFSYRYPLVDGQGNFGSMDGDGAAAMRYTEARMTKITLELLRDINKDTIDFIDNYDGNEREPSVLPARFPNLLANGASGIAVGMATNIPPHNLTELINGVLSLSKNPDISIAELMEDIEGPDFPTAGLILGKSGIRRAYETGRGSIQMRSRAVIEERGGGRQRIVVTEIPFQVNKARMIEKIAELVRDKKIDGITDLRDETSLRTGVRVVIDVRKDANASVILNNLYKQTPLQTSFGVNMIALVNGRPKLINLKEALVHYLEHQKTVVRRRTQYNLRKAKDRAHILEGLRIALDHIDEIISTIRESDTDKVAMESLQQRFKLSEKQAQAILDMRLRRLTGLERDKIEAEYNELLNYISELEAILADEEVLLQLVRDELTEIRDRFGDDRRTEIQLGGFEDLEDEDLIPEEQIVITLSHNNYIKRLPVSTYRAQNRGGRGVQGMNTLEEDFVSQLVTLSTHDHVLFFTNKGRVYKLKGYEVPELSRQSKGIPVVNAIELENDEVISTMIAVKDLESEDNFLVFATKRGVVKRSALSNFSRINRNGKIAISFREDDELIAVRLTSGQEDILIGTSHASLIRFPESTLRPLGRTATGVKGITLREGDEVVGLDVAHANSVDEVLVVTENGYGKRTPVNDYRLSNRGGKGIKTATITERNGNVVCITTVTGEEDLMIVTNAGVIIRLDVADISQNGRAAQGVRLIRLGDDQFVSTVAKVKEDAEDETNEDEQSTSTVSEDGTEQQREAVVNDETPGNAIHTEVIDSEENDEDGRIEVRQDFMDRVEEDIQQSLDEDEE
Chain of S. aureus DNA gyrase (P0A0K8 2-644): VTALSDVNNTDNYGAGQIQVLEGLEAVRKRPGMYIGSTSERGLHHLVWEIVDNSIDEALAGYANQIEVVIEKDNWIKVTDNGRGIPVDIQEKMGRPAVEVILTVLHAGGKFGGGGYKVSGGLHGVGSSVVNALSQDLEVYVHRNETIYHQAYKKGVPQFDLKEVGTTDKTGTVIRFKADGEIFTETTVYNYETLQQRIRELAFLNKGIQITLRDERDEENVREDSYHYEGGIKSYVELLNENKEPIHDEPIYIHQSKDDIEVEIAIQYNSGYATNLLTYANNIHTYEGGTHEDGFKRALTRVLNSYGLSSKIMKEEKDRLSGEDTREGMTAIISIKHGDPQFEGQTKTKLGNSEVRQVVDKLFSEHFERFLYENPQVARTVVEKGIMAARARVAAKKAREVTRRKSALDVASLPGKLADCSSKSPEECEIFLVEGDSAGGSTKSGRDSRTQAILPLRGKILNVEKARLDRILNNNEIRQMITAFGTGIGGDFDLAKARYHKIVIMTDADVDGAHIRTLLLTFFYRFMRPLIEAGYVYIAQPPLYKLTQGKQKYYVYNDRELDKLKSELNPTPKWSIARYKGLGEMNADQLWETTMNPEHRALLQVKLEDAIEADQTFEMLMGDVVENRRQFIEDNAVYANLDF

Row | Structure (SMILES) | pIC50
1 | COc1ccc(NC(=O)CNNC(=O)c2cc(-c3ccc(Br)cc3)nc3ccccc23)cc1 [6b, 2-(2-(2-(4-Bromophenyl)quinoline-4-carbonyl)hydrazinyl)-N-(4-methoxyphenyl)acetamide] | 4.47
2 | N=C1CC(N)=NN1C(=O)c1cc(-c2ccc(Br)cc2)nc2ccccc12 [compound 10, (3-Amino-5-imino-4,5-dihydro-1H-pyrazol-1-yl)(2-(4-bromophenyl)quinolin-4-yl)methanone] | 5.07
